The values below are quoted from earlier work in US20110021553A1, “IMMUNOSUPPRESSIVE MACROLIDE POWDER FOR ORAL SUSPENSION” (priority 2008, published 2011).

The subject of data set [1] is skin mast cells, basophils and eosinophils. To be noted: in vitro.
Assay in data set [2]: not given
This is another data set of the same source.

For data set [3], the system named is albumin and α1-glicoprotein. Particulars: mainly albumin and α1-glicoprotein.
The conditions of data set [4]: main metabolites via CYP3A4.

Consider `C=CC[C@@H]1/C=C(\C)C[C@H](C)C[C@H](OC)[C@H]2O[C@@](O)(C(=O)C(=O)N3CCCC[C@H]3C(=O)O[C@H](/C(C)=C/[C@@H]3CC[C@@H](O)[C@H](OC)C3)[C@H](C)[C@@H](O)CC1=O)[C@H](C)C[C@@H]2OC` (relative stereo) [Tacrolimus, [3S-[3R*[E(1S*,3S*,4S*)], 4S*,5R*,8S*,9E,12R*,14R*,15S*,16R*,18S*,19S*,26aR*]]-5,6,8,11,12,13,14,15,16,17,18,19,24,25,26,26a-hexadecahydro-5,19-dihydroxy-3-[2-(4-hidroxy-3-metoxy-cyclohexyl)-1-metyletenyl]-14,16-dimethoxy-4,10,12,18-tetramethyl-8-(2-propenyl)-15,19-epoxy-3H-pyrido [2,1-c] [1,4] oxazacyclotricosine-1,7,20,21 (4H, 23H)-tetraone, monohydrate], for which, for the setting “human, in vivo”, the “excreted in unaltered state through urine” value is reported as “less than 1%”. For the same compound, the elimination through bile entry (main channel of elimination) was “more than 90%”. Also, the Bioavailability (oral, reduced with the presence of food) is listed as 4-89%. Further, the “time to concentration in steady state” value (orally 0.3 mg/Kg/day, liver transplant patients, majority of the cases) was 3 days. Besides, the release of mediators result in data set [1] is “decreases the release of the mediators”. In addition, the “solubility in organic solvents” value in data set [2] (methanol, ethanol, acetone, ethyl acetate, chloroform and diethyl ether) was “soluble”. Besides, the solubility in water result in data set [2] (water) is reported as “insoluble”. For the same compound, the combination to proteins in data set [3] was 99%.

With `C=CCC1C=C(C)CC(C)CC(OC)C2OC(O)(C(=O)C(=O)N3CCCCC3C(=O)OC(C(C)=CC3CCC(O)C(OC)C3)C(C)C(O)CC1=O)C(C)CC2O` (stereo not shown) [13-O-desmethyl tacrolimus], in data set [4], the immunosuppressive effect result is recorded as “neither of which have a measurable immunosuppresive effect”.

Consider `C=CCC1C=C(C)CC(C)CC(O)C2OC(O)(C(=O)C(=O)N3CCCCC3C(=O)OC(C(C)=CC3CCC(O)C(OC)C3)C(C)C(O)CC1=O)C(C)CC2OC` (stereo not shown) [15-O-desmethyl tacrolimus], for which the immunosuppressive effect entry in data set [4] is on record as “neither of which have a measurable immunosuppresive effect”.
